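Interpolation was linear, between the two tested concentrations surrounding the appropriate level; five concentrations were tested over 48 hours in 96-well plates. TGI: concentration producing complete growth inhibition.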 Where a SMILES comes first, the peptide text is derived from it. The star is where a group is joined. Boc = CC(C)(C)OC(=O)*
Columns and labels:
Assay in all cases: NCI-60 cell line screen, 48 h
[1] = system: T-47D breast
[2] = system: M14 melanoma
[3] = system: NCI-H522 lung
[4] = system: MDA-N
[5] = system: IGROV1 ovarian
[6] = system: NCI-H23 lung
[7] = system: HCT-116 colon
[8] = system: A498 renal
[9] = system: EKVX NSCLC
[10] = system: RXF 393 renal
[11] = system: OVCAR-5 ovarian
[12] = system: BT-549 breast
[13] = system: SK-MEL-5 melanoma
[14] = system: COLO 205 colon
[15] = system: MDA-MB-435
[16] = system: OVCAR-3 ovarian
[17] = system: UACC-257 melanoma
[18] = system: MOLT-4 leukemia
[19] = system: NCI-H226 lung
[20] = system: SK-MEL-2 melanoma
[21] = system: K-562 leukemia
[22] = system: MALME-3M melanoma
[23] = system: UO-31 renal
[24] = system: PC-3 prostate
[25] = system: SK-OV-3 ovarian
[26] = system: ACHN renal
[27] = system: DU-145 prostate
[28] = system: MDA-MB-231 breast
[29] = system: NCI-H460 lung
[30] = system: MCF7 breast
[31] = system: SNB-75 CNS
[32] = system: HT29 colon
[33] = system: HL-60(TB) leukemia
[34] = system: SK-MEL-28 melanoma
[35] = system: KM12 colon
[36] = system: OVCAR-8 ovarian
[37] = system: HOP-92 NSCLC
[38] = system: HS 578T breast
[39] = system: 786-0 renal
[40] = system: HOP-62 NSCLC
[41] = system: SW-620 colon
[42] = system: HCC-2998 colon
[43] = system: RPMI-8226 leukemia
[44] = system: SNB-19 CNS
[45] = system: TK-10 renal
[46] = system: A549 NSCLC
[47] = system: U251 CNS
[48] = system: UACC-62 melanoma
[49] = system: SN12C renal
[50] = system: CCRF-CEM leukemia
[51] = system: HCT-15 colon
[52] = system: SR leukemia
[53] = system: OVCAR-4 ovarian
[54] = system: LOX IMVI melanoma
[55] = system: SF-268 CNS

Q: Which results are given for `Clc1ccc(-c2cc(-c3cc(-c4ccc(Cl)cc4)n[nH]3)[nH]n2)cc1`?
A: TGI [1]: > 100 µM; TGI [2]: > 100 µM; TGI [3]: > 100 µM; TGI [4]: > 100 µM; TGI [5]: > 100 µM; TGI [6]: > 100 µM; TGI [7]: > 100 µM; TGI [8]: > 100 µM; TGI [9]: > 100 µM; TGI [10]: > 100 µM; TGI [11]: > 100 µM; TGI [12]: > 100 µM; TGI [13]: > 100 µM; TGI [14]: > 100 µM; TGI [15]: > 100 µM; TGI [16]: > 100 µM; TGI [17]: > 100 µM; TGI [18]: > 100 µM; TGI [19]: > 100 µM; TGI [20]: > 100 µM; TGI [21]: > 100 µM; TGI [22]: > 100 µM; TGI [23]: > 100 µM; TGI [24]: > 100 µM; TGI [25]: > 100 µM; TGI [26]: > 100 µM; TGI [27]: > 100 µM

Q: How did the TGI [28] turn out when `CCOC(=O)C1(C)CCc2sc(N)c(C#N)c21` (stereo not given) was run?
A: The TGI was > 100 µM.

Q: And the TGI [1]?
A: Its TGI is > 100 µM.

Q: And the TGI [29]?
A: The TGI was > 100 µM.

Q: And the TGI [30]?
A: Its TGI is > 100 µM.

Q: And the TGI [31]?
A: The TGI was > 100 µM.

Q: And the TGI [32]?
A: Its TGI is > 100 µM.

Q: And the TGI [2]?
A: The TGI was > 100 µM.

Q: And the TGI [4]?
A: Its TGI is > 100 µM.

Q: What about the TGI [33] of the same compound?
A: Its TGI is > 100 µM.

Q: What about the TGI [34] of the same compound?
A: The TGI was > 100 µM.

Q: And the TGI [5]?
A: Its TGI is > 100 µM.

Q: What about the TGI [6] of the same compound?
A: Its TGI is > 100 µM.

Q: What about the TGI [7] of the same compound?
A: The TGI was > 100 µM.

Q: What about the TGI [8] of the same compound?
A: Its TGI is > 100 µM.

Q: And the TGI [35]?
A: Its TGI is > 100 µM.

Q: And the TGI [36]?
A: The TGI was > 100 µM.

Q: And the TGI [9]?
A: Its TGI is > 100 µM.

Q: What about the TGI [10] of the same compound?
A: The TGI was > 100 µM.

Q: And the TGI [37]?
A: Its TGI is > 100 µM.

Q: And the TGI [11]?
A: The TGI was > 100 µM.

Q: And the TGI [12]?
A: Its TGI is > 100 µM.

Q: And the TGI [13]?
A: Its TGI is > 100 µM.

Q: And the TGI [38]?
A: Its TGI is > 100 µM.

Q: And the TGI [39]?
A: The TGI was > 100 µM.

Q: What about the TGI [40] of the same compound?
A: The TGI was > 100 µM.

Q: What about the TGI [41] of the same compound?
A: Its TGI is > 100 µM.

Q: And the TGI [14]?
A: The TGI was > 100 µM.

Q: What about the TGI [42] of the same compound?
A: The TGI was > 100 µM.

Q: What about the TGI [17] of the same compound?
A: The TGI was > 100 µM.

Q: What about the TGI [43] of the same compound?
A: The TGI was > 100 µM.

Q: What about the TGI [18] of the same compound?
A: Its TGI is > 100 µM.

Q: What about the TGI [44] of the same compound?
A: The TGI was > 100 µM.

Q: What about the TGI [45] of the same compound?
A: Its TGI is > 100 µM.

Q: And the TGI [19]?
A: The TGI was > 100 µM.

Q: What about the TGI [20] of the same compound?
A: The TGI was > 100 µM.

Q: What about the TGI [21] of the same compound?
A: Its TGI is > 100 µM.

Q: What about the TGI [22] of the same compound?
A: Its TGI is > 100 µM.

Q: What about the TGI [46] of the same compound?
A: Its TGI is > 100 µM.

Q: What about the TGI [23] of the same compound?
A: Its TGI is > 100 µM.

Q: And the TGI [24]?
A: Its TGI is > 100 µM.

Q: And the TGI [26]?
A: Its TGI is > 100 µM.

Q: And the TGI [47]?
A: Its TGI is > 100 µM.

Q: What about the TGI [48] of the same compound?
A: The TGI was > 100 µM.

Q: And the TGI [49]?
A: The TGI was > 100 µM.

Q: What about the TGI [50] of the same compound?
A: Its TGI is > 100 µM.

Q: What about the TGI [51] of the same compound?
A: The TGI was > 100 µM.

Q: For `CC(C)(C)OC(=O)NC(Cc1ccc(O)cc1)C(=O)NC(CCCCN)C(=O)O` (stereo not drawn) (Boc-Tyr-Lys-OH; configuration not given here), which TGI [28] is on record?
A: Its TGI is 61.8 µM.

Q: And the TGI [1]?
A: The TGI was 53.1 µM.

Q: What about the TGI [29] of the same compound?
A: Its TGI is 66.2 µM.

Q: And the TGI [30]?
A: Its TGI is > 100 µM.

Q: What about the TGI [31] of the same compound?
A: The TGI was 77 µM.

Q: And the TGI [32]?
A: Its TGI is > 100 µM.

Q: And the TGI [2]?
A: The TGI was 56 µM.

Q: And the TGI [3]?
A: Its TGI is 26.5 µM.

Q: What about the TGI [4] of the same compound?
A: The TGI was > 100 µM.

Q: What about the TGI [33] of the same compound?
A: Its TGI is 52.8 µM.

Q: What about the TGI [34] of the same compound?
A: The TGI was 56.1 µM.

Q: And the TGI [5]?
A: The TGI was 37.1 µM.

Q: And the TGI [6]?
A: Its TGI is 48.6 µM.

Q: And the TGI [52]?
A: Its TGI is 77.3 µM.

Q: What about the TGI [7] of the same compound?
A: Its TGI is 40.9 µM.

Q: What about the TGI [8] of the same compound?
A: Its TGI is 92.4 µM.

Q: What about the TGI [53] of the same compound?
A: The TGI was 48.1 µM.

Q: And the TGI [36]?
A: The TGI was > 100 µM.

Q: And the TGI [11]?
A: The TGI was 84.9 µM.

Q: And the TGI [12]?
A: Its TGI is 80.5 µM.

Q: What about the TGI [54] of the same compound?
A: Its TGI is 28.2 µM.

Q: And the TGI [13]?
A: The TGI was > 100 µM.

Q: What about the TGI [39] of the same compound?
A: The TGI was > 100 µM.

Q: And the TGI [40]?
A: The TGI was 39 µM.

Q: What about the TGI [41] of the same compound?
A: The TGI was > 100 µM.

Q: What about the TGI [15] of the same compound?
A: Its TGI is > 100 µM.

Q: And the TGI [42]?
A: The TGI was 65.3 µM.

Q: And the TGI [16]?
A: Its TGI is 66.3 µM.

Q: What about the TGI [17] of the same compound?
A: Its TGI is 83.5 µM.

Q: What about the TGI [43] of the same compound?
A: Its TGI is 84.5 µM.

Q: What about the TGI [18] of the same compound?
A: Its TGI is 94.7 µM.

Q: What about the TGI [44] of the same compound?
A: Its TGI is 53.2 µM.

Q: What about the TGI [45] of the same compound?
A: Its TGI is > 100 µM.

Q: And the TGI [19]?
A: Its TGI is > 100 µM.

Q: What about the TGI [20] of the same compound?
A: Its TGI is 35.1 µM.

Q: And the TGI [21]?
A: The TGI was > 100 µM.

Q: What about the TGI [22] of the same compound?
A: The TGI was 76.6 µM.

Q: And the TGI [46]?
A: The TGI was > 100 µM.

Q: And the TGI [23]?
A: The TGI was 54 µM.

Q: And the TGI [24]?
A: The TGI was > 100 µM.

Q: And the TGI [26]?
A: The TGI was 65.1 µM.

Q: What about the TGI [47] of the same compound?
A: The TGI was 43.5 µM.

Q: And the TGI [48]?
A: Its TGI is 31.5 µM.

Q: What about the TGI [55] of the same compound?
A: The TGI was > 100 µM.

Q: What about the TGI [27] of the same compound?
A: Its TGI is 80.3 µM.

Q: What about the TGI [49] of the same compound?
A: Its TGI is 42.3 µM.

Q: What about the TGI [50] of the same compound?
A: Its TGI is 92.7 µM.
